Results taken from paper PMC9469100, “Turning Nonselective Inhibitors of Type I Protein Arginine Methyltransferases into Potent and Selective Inhibitors of Protein Arginine Methyltransferase 4 through a Deconstruction–Reconstruction and Fragment-Growing Approach” (Journal of Medicinal Chemistry, 2022).
Like-named read-outs stand apart in the source and are kept apart here.

Experiments:
[1] = target: PRMT3 (Homo sapiens, UniProt O60678); test: Radioisotope-based filter-binding (HotSpot) assay, PRMT3
Chain of PRMT3 (O60678 2-531): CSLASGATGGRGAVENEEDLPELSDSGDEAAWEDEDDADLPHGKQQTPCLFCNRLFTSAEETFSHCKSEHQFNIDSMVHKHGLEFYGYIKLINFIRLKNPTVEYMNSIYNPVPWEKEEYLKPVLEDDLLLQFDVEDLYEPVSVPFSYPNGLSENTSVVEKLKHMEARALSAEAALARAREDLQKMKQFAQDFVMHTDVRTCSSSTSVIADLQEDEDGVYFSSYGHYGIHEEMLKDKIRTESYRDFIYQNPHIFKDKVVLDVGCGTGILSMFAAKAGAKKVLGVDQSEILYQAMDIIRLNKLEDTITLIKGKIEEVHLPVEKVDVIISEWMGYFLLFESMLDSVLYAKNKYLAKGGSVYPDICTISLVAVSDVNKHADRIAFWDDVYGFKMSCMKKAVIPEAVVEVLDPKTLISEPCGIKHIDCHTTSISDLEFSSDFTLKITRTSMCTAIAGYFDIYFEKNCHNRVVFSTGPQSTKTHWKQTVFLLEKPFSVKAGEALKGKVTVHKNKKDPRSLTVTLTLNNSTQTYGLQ
Description: (§2) Then, ^3H-SAM (final concentration 1 μM) was delivered into the reaction mixture to initiate the reaction. After incubation for 60 min at 30 °C, the reaction mixture was delivered to filter paper for detection (as assessed by scintillation). Data were analyzed using Excel and GraphPad Prism 6.0 software (GraphPad Software Inc., San Diego, CA) for IC50 curve fits using sigmoidal dose vs response-variable slope (four parameters) equations.

[2] = target: PRMT6 (Homo sapiens, UniProt Q96LA8); test: Radioisotope-based filter-binding (HotSpot) assay, PRMT6
Chain of PRMT6 (Q96LA8 2-375): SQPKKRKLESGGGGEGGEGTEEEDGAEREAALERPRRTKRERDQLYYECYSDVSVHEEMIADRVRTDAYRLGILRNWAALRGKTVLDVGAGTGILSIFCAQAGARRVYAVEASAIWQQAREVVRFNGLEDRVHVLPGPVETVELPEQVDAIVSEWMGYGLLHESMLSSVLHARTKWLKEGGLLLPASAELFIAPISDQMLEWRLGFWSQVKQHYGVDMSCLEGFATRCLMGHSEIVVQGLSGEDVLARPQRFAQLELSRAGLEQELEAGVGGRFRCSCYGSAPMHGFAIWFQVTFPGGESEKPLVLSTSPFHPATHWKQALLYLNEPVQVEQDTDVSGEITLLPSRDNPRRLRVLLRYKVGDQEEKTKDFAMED
Description: as §2

[3] = target: PRMT5/MEP50 complex (Homo sapiens, UniProt O14744); test: Radioisotope-based filter-binding (HotSpot) assay, PRMT5
Chain of PRMT5/MEP50 complex (O14744 2-637): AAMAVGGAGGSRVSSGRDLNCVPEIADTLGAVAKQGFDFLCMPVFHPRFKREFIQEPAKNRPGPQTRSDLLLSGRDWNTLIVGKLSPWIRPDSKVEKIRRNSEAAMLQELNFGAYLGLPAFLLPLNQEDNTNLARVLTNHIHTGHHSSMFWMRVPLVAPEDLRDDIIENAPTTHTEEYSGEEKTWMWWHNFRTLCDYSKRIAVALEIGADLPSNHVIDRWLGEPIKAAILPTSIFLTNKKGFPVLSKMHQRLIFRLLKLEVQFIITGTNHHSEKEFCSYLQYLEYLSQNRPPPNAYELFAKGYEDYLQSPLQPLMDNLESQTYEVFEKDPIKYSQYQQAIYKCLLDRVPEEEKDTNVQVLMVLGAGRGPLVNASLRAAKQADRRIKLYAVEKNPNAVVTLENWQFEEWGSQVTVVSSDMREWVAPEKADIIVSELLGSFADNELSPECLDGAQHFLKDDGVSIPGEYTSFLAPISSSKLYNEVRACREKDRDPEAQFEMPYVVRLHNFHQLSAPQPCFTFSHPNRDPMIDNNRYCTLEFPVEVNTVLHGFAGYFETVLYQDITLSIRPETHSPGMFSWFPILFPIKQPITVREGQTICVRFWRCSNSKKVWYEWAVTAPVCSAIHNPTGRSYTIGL
Chain of PRMT5/MEP50 complex (Q9BQA1 2-342 partner limits assumed): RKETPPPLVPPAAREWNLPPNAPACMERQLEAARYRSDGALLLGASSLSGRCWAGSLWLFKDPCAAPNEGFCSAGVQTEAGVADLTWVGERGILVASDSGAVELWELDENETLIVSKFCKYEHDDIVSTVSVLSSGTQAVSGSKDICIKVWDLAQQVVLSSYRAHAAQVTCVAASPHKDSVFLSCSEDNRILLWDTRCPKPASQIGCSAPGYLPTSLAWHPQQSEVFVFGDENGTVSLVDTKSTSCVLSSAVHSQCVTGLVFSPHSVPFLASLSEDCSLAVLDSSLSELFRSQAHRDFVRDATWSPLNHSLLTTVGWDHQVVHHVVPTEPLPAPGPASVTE
Description: as §2

[4] = target: ΔN(1–60)-PRMT8 (Homo sapiens, UniProt Q9NR22); test: Radioisotope-based filter-binding (HotSpot) assay, PRMT8
Chain of ΔN(1–60)-PRMT8 (Q9NR22 61-394, stated change not applied): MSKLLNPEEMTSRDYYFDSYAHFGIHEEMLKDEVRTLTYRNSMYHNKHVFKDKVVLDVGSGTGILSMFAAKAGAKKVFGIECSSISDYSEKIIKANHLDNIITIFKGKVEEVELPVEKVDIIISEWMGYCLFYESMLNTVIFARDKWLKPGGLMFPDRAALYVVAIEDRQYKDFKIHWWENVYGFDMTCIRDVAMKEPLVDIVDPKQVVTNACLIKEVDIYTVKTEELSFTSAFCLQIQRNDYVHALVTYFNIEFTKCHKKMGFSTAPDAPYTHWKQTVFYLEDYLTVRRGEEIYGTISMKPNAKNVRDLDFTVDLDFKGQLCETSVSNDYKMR
Description: as §2

[5] = target: T1, PRMT7 (Homo sapiens, UniProt Q9NVM4); test: Radioisotope-based filter-binding (HotSpot) assay, PRMT7
T1 sequence (Q9NVM4 2-692): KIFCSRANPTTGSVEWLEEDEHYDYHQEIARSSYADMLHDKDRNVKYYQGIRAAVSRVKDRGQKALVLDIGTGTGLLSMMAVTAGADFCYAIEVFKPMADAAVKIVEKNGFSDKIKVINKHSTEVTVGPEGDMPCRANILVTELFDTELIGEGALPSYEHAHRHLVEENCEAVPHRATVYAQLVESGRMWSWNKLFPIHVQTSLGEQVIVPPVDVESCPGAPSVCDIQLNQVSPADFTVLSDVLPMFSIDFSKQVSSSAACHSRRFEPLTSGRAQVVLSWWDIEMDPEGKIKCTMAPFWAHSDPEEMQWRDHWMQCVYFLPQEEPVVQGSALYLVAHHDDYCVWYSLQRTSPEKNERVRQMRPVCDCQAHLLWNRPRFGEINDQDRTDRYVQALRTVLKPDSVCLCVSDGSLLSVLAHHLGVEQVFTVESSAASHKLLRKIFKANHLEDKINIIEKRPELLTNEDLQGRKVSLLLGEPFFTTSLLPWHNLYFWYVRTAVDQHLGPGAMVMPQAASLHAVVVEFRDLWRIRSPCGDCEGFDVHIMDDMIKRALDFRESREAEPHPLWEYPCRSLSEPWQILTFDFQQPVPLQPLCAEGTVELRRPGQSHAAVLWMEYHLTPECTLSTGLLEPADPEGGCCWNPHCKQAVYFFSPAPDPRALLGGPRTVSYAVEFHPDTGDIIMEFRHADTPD
Description: as §2

[6] = target: T2, human PRMT4 (full length) (Homo sapiens, UniProt Q86X55); test: SPR binding to immobilized PRMT4; conditions: for koff / kon: immobilized PRMT4; for kon: read-out: kon; for τR: in vitro residence time, τ = 1/koff
T2 construct: Full-length recombinant PRMT4 (Active motif, # 81107); purchased Active motif # 81107
T2 sequence (Q86X55 1-608): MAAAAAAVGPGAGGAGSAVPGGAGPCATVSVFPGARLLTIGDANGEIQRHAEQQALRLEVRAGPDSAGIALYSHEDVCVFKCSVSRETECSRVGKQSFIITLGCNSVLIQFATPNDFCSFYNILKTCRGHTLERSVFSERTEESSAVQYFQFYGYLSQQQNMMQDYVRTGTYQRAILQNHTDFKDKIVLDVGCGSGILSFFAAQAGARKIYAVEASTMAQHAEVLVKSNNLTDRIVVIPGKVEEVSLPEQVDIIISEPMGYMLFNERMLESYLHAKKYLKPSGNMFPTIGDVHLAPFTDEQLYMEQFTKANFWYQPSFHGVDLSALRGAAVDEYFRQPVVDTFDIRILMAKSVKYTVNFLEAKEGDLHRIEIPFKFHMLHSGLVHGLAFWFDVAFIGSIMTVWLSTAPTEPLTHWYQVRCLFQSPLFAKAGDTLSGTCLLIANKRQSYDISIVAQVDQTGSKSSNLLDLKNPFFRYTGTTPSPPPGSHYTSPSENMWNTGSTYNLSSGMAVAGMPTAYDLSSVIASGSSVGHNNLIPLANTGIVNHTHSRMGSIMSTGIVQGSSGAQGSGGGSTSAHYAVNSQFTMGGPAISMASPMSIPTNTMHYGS
Description: To this aim, human PRMT4 (full length) was covalently immobilized on a sensor chip surface using an amine-coupling approach, and the three compounds were injected at different concentrations over the protein surface. To reduce false positives from detergent-sensitive, nonspecific aggregation-based binding, detergents (0.05% Tween-20) were added to the running buffer in all experiments.
SPR experiments were performed on a Biacore T200 biosensor (Cytiva). PBS buffer (phosphate-buffered saline, pH 7.4) supplemented with 0.05% Tween-20 was used as the running buffer. […] One flow cell was left empty for background subtractions. […] Each compound was tested in […], prepared starting from 640 to 10 nM. Binding experiments were performed at 25 °C by using a flow rate of 30 μL/min, with 90 s monitoring of association and 90 s monitoring of dissociation. Regeneration of the surfaces was performed, when necessary, by a 10 s injection of 5 mM NaOH. […] The corrected sensorgrams for each compound were fitted simultaneously using a 1:1 Langmuir model to obtain equilibrium dissociation constants (KD) and kinetic dissociation (koff) and association (kon) constants.

[7] = target: T3, PRMT4 (Homo sapiens, UniProt Q86X55); test: Radioisotope-based filter-binding (HotSpot) assay, PRMT4
T3 sequence (Q86X55 2-608): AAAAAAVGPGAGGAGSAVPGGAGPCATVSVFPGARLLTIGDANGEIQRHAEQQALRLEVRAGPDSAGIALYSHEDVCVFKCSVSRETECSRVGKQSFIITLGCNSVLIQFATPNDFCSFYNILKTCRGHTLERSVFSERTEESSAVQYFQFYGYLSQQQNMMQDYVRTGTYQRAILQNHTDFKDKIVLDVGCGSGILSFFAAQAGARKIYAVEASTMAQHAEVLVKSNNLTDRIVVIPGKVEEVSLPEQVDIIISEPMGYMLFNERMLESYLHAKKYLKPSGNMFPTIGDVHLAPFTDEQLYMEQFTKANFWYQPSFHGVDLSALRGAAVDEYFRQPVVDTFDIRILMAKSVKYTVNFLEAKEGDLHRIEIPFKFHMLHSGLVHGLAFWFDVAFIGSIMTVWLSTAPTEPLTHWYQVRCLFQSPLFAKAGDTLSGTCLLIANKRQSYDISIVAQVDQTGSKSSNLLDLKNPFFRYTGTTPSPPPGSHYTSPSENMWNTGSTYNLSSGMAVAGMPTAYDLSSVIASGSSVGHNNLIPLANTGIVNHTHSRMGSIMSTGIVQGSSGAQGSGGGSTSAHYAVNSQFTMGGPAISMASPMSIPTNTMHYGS
Description: as §2

[8] = target: T4, ASH1L (Homo sapiens, UniProt Q9NR48); test: HotSpot KMT activity assay, ASH1L; assay type: biochemical
T4 construct: ASH1L (residues 2046–2330, with an N-terminal His-tag); His (N); purchased Reaction Biology Corporation
Description: (§1) Then, ^3H-SAM (final concentration 1 μM) was delivered into the reaction mixture to initiate the reaction. After incubation for 60 min at 30 °C, the reaction mixture was delivered to filter-paper for detection (as assessed by scintillation). […] No inhibitor control (DMSO) was considered as 100% enzyme activity. Data were analyzed using Excel and GraphPad Prism 6.0 software (GraphPad Software Inc., San Diego, CA). Values obtained for each compound are mean ± SD determined for two separate experiments.

[9] = Parallel artificial membrane permeability assay (PAMPA); assay type: in vitro ADME; conditions: phosphate buffer pH 7.4, donor 0.2 mM, 24 h at room temperature
Description: A donor solution (0.2 mM) was prepared by diluting 20 mM dimethyl sulfoxide (DMSO) compound stock solution using phosphate buffer (pH 7.4, 0.01 M). Filters were coated with 5 μL of a 1% (w/v) dodecane solution of L-α-phosphatidylcholine. Donor solution (150 μL) was added to each well of the filter plate. To each well of the acceptor plate, 300 μL of solution (5% DMSO in phosphate buffer) was added. […] The sandwich was incubated for 24 h at room temperature under gentle shaking. After the incubation time, the sandwich plates were separated, and 250 μL of the acceptor plate was transferred to a UV quartz microtiter plate and measured by UV spectroscopy, using a Multiskan GO microplate spectrophotometer (Thermo Fisher Scientific) at 250–500 nm at a step of 5 nm. Reference solutions (250 μL) were prepared diluting the sample stock solutions to the same concentration as that with no membrane barrier.

[10] = target: T5, SETD8 (Homo sapiens, UniProt Q9NQR1); test: HotSpot KMT activity assay, SETD8; assay type: biochemical; conditions: 10-dose mode, 3-fold dilution starting at 100 µM; read-out: ref. cmpd. IC50 (µM), SETD8
T5 construct: SETD8 (residues 190–352, C-terminus); N-terminal His-tag; His (N); purchased Reaction Biology Corporation
T5 sequence (Q9NQR1 231-393): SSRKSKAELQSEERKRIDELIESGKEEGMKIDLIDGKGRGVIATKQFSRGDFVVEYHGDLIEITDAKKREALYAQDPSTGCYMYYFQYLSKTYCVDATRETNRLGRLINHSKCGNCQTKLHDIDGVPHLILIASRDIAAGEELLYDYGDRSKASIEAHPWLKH
Description: as §1

[11] = read-out: IC50 (μM) PRMT3, radioisotope-based filter assay, 5 μM histone H4, 1 μM 3H-SAM
[12] = read-out: IC50 (μM) PRMT6, radioisotope-based filter assay, 5 μM GST-GAR, 1 μM 3H-SAM
[13] = read-out: IC50 (μM) PRMT5, radioisotope-based filter assay, 5 μM histone H2A, 1 μM 3H-SAM
[14] = IC50 (μM) PRMT7, radioisotope-based filter assay, 5 μM GST-GAR, 1 μM 3H-SAM
[15] = on increasing the linker between 4-hydroxy-2-naphthoate and guanidine (values equal the ratio to the IC50 of 12c)

Structure (SMILES): COC(=O)c1cc(O)c2cc(NC(=O)NCCCNC(=N)NC[C@H]3O[C@@H](n4cnc5c(N)ncnc54)[C@H](O)[C@@H]3O)ccc2c1 [12a, Methyl 6-(3-(3-(3-(((2R,3S,4R,5R)-5-(6-Amino-9H-purin-9-yl)-3,4-dihydroxytetrahydrofuran-2-yl)methyl)guanidino)propyl)ureido)-4-hydroxy-2-naphthoate]
- IC50 [1, 11]: 57.2 µM
- IC50 [2, 12]: 72.8 µM
- IC50 [3, 13]: 52.1 µM
- IC50 ([4]; read-out: IC50 PRMT8 (Figure 5 heatmap)): 8.29 µM
- IC50 [5, 14]: 0.3 µM
- IC50 ([5]; read-out: IC50 PRMT7 (Figure 5 heatmap), radioisotope-based filter assay): 0.315 µM

Structure (SMILES): COC(=O)c1cc(O)c2cc(NC(=O)NCCCCNC(=N)NC[C@H]3O[C@@H](n4cnc5c(N)ncnc54)[C@H](O)[C@@H]3O)ccc2c1 [12b, Methyl 6-(3-(4-(3-(((2R,3S,4R,5R)-5-(6-Amino-9H-purin-9-yl)-3,4-dihydroxytetrahydrofuran-2-yl)methyl)guanidino)butyl)ureido)-4-hydroxy-2-naphthoate]
- koff ([6]; SPR): 0.015 s⁻¹
- Kd ([6]; SPR, immobilized PRMT4, 25 °C, KD from ratio koff/kon): 2.3 µM
- kon ([6]; SPR): 6520 M⁻¹ s⁻¹
- τR [6]: 66.7 s
- IC50 [1, 11]: 43.4 µM
- IC50 [2, 12]: > 100 µM
- IC50 [3, 13]: 76.7 µM
- IC50 ([7]; read-out: IC50 (μM) PRMT4, radioisotope-based filter assay, 5 μM histone H3, 1 μM 3H-SAM): 2.14 µM
- IC50 ([7]; read-out: IC50 PRMT4 (Figure 5 heatmap), radioisotope-based filter assay): 2.14 µM
- IC50 ([4]; read-out: IC50 (μM) PRMT8, 5 μM histone H4, 1 μM 3H-SAM): 18.7 µM
- IC50 ([5]; read-out: IC50 (μM) PRMT7, radioisotope-based filter assay, 5 μM GST-GAR, 1 μM 3H-SAM): 0.55 µM

Structure (SMILES): COC(=O)c1cc(O)c2cc(NC(=O)NCCCCCCNC(=N)NC[C@H]3O[C@@H](n4cnc5c(N)ncnc54)[C@H](O)[C@@H]3O)ccc2c1 [12d, Methyl 6-(3-(6-(3-(((2R,3S,4R,5R)-5-(6-Amino-9H-purin-9-yl)-3,4-dihydroxytetrahydrofuran-2-yl)methyl)guanidino)hexyl)ureido)-4-hydroxy-2-naphthoate]
- Kd [6]: 2.8 µM
- koff ([6]; SPR): 0.76 s⁻¹
- kon ([6]; SPR): 270000 M⁻¹ s⁻¹
- τR [6]: 1.31 s
- IC50 ([1]; IC50 (μM) PRMT3, radioisotope-based filter assay, 5 μM histone H4, 1 μM 3H-SAM): 12.2 µM
- IC50 ([1]; IC50 PRMT3 (Figure 5 heatmap), radioisotope-based filter assay): 12.2 µM
- IC50 [2]: 47 µM
- IC50 [3]: 2.6 µM
- gain in the inhibitory activity against PRMT5 [3, 15]: 19.8 fold
- IC50 ([7]; IC50 (μM) PRMT4, radioisotope-based filter assay, 5 μM histone H3, 1 μM 3H-SAM): 0.068 µM
- IC50 ([7]; IC50 PRMT4 (Figure 5 heatmap), radioisotope-based filter assay): 0.061 µM
- gain in the inhibitory activity against PRMT4 [7, 15]: 6.2 fold
- IC50 [5, 14]: 0.41 µM
- IC50 ([5]; IC50 PRMT7 (Figure 5 heatmap), radioisotope-based filter assay): 0.413 µM

Structure (SMILES): CN1C(=O)[C@@]23C[C@]4([C@]56C[C@@]78SS[C@@](CO)(C(=O)N7[C@H]5Nc5ccccc56)N(C)C8=O)c5ccccc5N[C@@H]4N2C(=O)[C@]1(CO)SS3 [chaet, chaetocin, reference compound]
- IC50 [8]: 0.14 µM

Structure (SMILES): CC(C)NCC(O)COc1cccc2ccccc12 (stereo not shown) [propranolol, reference compound]
- Papp at 24 h, 0.2 mM [9]: 6 ×10⁻⁶ cm/s

Structure (SMILES): Cc1ccc(NC2=CC(=O)c3sc(C)nc3C2=O)cc1 [ryuv, ryuvidine, reference compound]
- IC50 [10]: 0.186 µM
